The text below walks through data of patent US11065257B2, “Substituted pyrazoloazepin-4-ones and their use as phosphodiesterase inhibitors” (LEO Pharma A/S, priority 2016, dated 2021).

This assay deals with T1, human PDE4D catalytic domain (Homo sapiens, UniProt Q08499).
T1 construct: UniProt no; Q08499 [S380-L740]
T1 sequence (Q08499 380-740): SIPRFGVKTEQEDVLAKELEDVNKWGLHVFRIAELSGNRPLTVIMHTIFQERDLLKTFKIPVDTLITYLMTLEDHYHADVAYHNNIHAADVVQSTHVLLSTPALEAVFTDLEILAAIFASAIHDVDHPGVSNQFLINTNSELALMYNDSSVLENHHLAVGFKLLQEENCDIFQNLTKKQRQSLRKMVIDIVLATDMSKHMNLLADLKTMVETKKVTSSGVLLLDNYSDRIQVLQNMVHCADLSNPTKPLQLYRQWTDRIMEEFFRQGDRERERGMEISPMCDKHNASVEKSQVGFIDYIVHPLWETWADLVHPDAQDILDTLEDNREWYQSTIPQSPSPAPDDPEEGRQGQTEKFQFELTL
Put plainly: PDE4 Assay. It is filed as biochemical. Conditions: human PDE4D catalytic domain (S380-L740), TR-FRET with FAM-cAMP; expressed as a range of IC50; read-out: PDE4 Potency Range. The procedure: The human PDE4D catalytic domain (UniProt no. Q08499 [S380-L740]) was incubated with a mixture of non-labelled cAMP (cyclic adenosine monophosphate) and fluorescein amidite (FAM) conjugated cAMP and titrated test or reference compound. Following brief incubation the enzymatic reaction was stopped by addition of binding buffer containing nanoparticles with immobilized trivalent metal ions capable of binding 1) AMP phospho groups and 2) terbium (Tb) donor fluorophores. Subsequent excitation of the Tb donor triggers time-resolved FRET to adjacent FAM acceptor molecules resulting in light emission. In the presence of a PDE4 inhibitor, AMP generation was reduced resulting in a lower fluorescence signal. The cAMP phosphodiester is not bound by the detection system.
The results were calculated as the molar concentrations resulting in 50% inhibition of the substrate cleavage compared to controls samples, and are expressed as a range of IC50 (nM).
(Time-resolved FRET reads energy transfer from a long-lived donor to a nearby acceptor.)
Regarding `CCc1nn(CCCOC(=O)c2ncc(C)cn2)c2c1C(=O)NCC1(CCOCC1)C2` [Example 66, 3-(3-ethyl-4-oxo-spiro[6,8-dihydro-5H-pyrazolo[4,3-c]azepine-7,4′-tetrahydropyran]-1-yl)propyl 5-methylpyrimidine-2-carboxylate], the IC50 is above 500 nM.

`CCc1noc(CC)c1C(=O)OCCCn1nc(CC)c2c1CC1(CCOCC1)CNC2=O` [Example 97, 3-(3-ethyl-4-oxo-spiro[6,8-dihydro-5H-pyrazolo[4,3-c]azepine-7,4′-tetrahydropyran]-1-yl)propyl 3,5-diethylisoxazole-4-carboxylate]: the IC50 was in the range of 100 to 500 nM.

For the compound `CCc1nn(CCCOC(=O)c2c[nH]nn2)c2c1C(=O)NCC1(CCOCC1)C2` [Example 25, 3-(3-ethyl-4-oxo-spiro[6,8-dihydro-5H-pyrazolo[4,3-c]azepine-7,4′-tetrahydropyran]-1-yl)propyl 1H-triazole-4-carboxylate], the IC50 fell in the range of 100 to 500 nM.

Regarding `CCc1nn(CCCOC(=O)C2CCOC2)c2c1C(=O)NCC1(CCOCC1)C2` (centres unmarked) [Example 28, 3-(3-ethyl-4-oxo-spiro[6,8-dihydro-5H-pyrazolo[4,3-c]azepine-7,4′-tetrahydropyran]-1-yl)propyl tetrahydrofuran-3-carboxylate], the IC50 was above 500 nM.

`CCc1nn(CCCOC(=O)c2ccnn2C)c2c1C(=O)NCC1(CCOCC1)C2` [Example 35, 3-(3-ethyl-4-oxo-spiro[6,8-dihydro-5H-pyrazolo[4,3-c]azepine-7,4′-tetrahydropyran]-1-yl)propyl 2-methylpyrazole-3-carboxylate]: the IC50 fell in the range of 100 to 500 nM.

Regarding `CCc1nn(CCCOC(=O)c2cnsc2)c2c1C(=O)NCC1(CCOCC1)C2` [Example 55, 3-(3-ethyl-4-oxo-spiro[6,8-dihydro-5H-pyrazolo[4,3-c]azepine-7,4′-tetrahydropyran]-1-yl)propyl isothiazole-4-carboxylate], the IC50 was 100 to 500 nM.

In the case of `CCc1nn(CCCOC(=O)c2sc(OC)nc2C)c2c1C(=O)NCC1(CCOCC1)C2` [Example 100, 3-(3-ethyl-4-oxo-spiro[6,8-dihydro-5H-pyrazolo[4,3-c]azepine-7,4′-tetrahydropyran]-1-yl)propyl 2-methoxy-4-methyl-thiazole-5-carboxylate], the IC50 was in the range of 100 to 500 nM.

On to `CCc1nn(CCCOC(=O)c2cnsc2C)c2c1C(=O)NCC1(CCOCC1)C2` [Example 79, 3-(3-ethyl-4-oxo-spiro[6,8-dihydro-5H-pyrazolo[4,3-c]azepine-7,4′-tetrahydropyran]-1-yl)propyl 5-methylisothiazole-4-carboxylate], for which the IC50 was in the range of 100 to 500 nM.

With `CCc1nn(CCCOC(=O)c2nccc(C)n2)c2c1C(=O)NCC1(CCOCC1)C2` [Example 69, 3-(3-ethyl-4-oxo-spiro[6,8-dihydro-5H-pyrazolo[4,3-c]azepine-7,4′-tetrahydropyran]-1-yl)propyl 4-methylpyrimidine-2-carboxylate], the IC50 is above 500 nM.

For the compound `CCc1nn(CCOC(=O)c2cc(C)ns2)c2c1C(=O)NCC1(CCOCC1)C2` [Example 13, 2-(3-ethyl-4-oxo-spiro[6,8-dihydro-5H-pyrazolo[4,3-c]azepine-7,4′-tetrahydropyran]-1-yl)ethyl 3-methylisothiazole-5-carboxylate], the IC50 is 100 to 500 nM.

For `CCc1nn(CCCOC(=O)C2CCCSC2)c2c1C(=O)NCC1(CCOCC1)C2` (centres unmarked) [Example 84, 3-(3-ethyl-4-oxo-spiro[6,8-dihydro-5H-pyrazolo[4,3-c]azepine-7,4′-tetrahydropyran]-1-yl)propyl tetrahydrothiopyran-3-carboxylate], the IC50 lay in the range of 100 to 500 nM.

In the case of `CCc1nn(CCCOC(=O)c2cnn(C)c2)c2c1C(=O)NCC1(CCOCC1)C2` [Example 38, 3-(3-ethyl-4-oxo-spiro[6,8-dihydro-5H-pyrazolo[4,3-c]azepine-7,4′-tetrahydropyran]-1-yl)propyl 1-methylpyrazole-4-carboxylate], the IC50 is 100 to 500 nM.

For `CCc1nn(CCCOC(=O)c2ncccc2C)c2c1C(=O)NCC1(CCOCC1)C2` [Example 62, 3-(3-ethyl-4-oxo-spiro[6,8-dihydro-5H-pyrazolo[4,3-c]azepine-7,4′-tetrahydropyran]-1-yl)propyl 3-methylpyridine-2-carboxylate], the IC50 was above 500 nM.

On to `CCc1nn(CCCOC(=O)c2cc(C)ns2)c2c1C(=O)NCC1(CCOCC1)C2` [Example 78, 3-(3-ethyl-4-oxo-spiro[6,8-dihydro-5H-pyrazolo[4,3-c]azepine-7,4′-tetrahydropyran]-1-yl)propyl 3-methylisothiazole-5-carboxylate], for which the IC50 fell in the range of 100 to 500 nM.

With `CCc1nn(CCCOC(=O)c2cc(C)ccn2)c2c1C(=O)NCC1(CCOCC1)C2` [Example 63, 3-(3-ethyl-4-oxo-spiro[6,8-dihydro-5H-pyrazolo[4,3-c]azepine-7,4′-tetrahydropyran]-1-yl)propyl 4-methylpyridine-2-carboxylate], the IC50 is above 500 nM.

As for `CCc1nn(CCCOC(=O)C2CCN(C(C)=O)CC2)c2c1C(=O)NCC1(CCOCC1)C2` [Example 99, 3-(3-ethyl-4-oxo-spiro[6,8-dihydro-5H-pyrazolo[4,3-c]azepine-7,4′-tetrahydropyran]-1-yl)propyl 1-acetylpiperidine-4-carboxylate], the IC50 was above 500 nM.

On to `CCc1nn(CCCOC(=O)C2CCS(=O)(=O)C2)c2c1C(=O)NCC1(CCOCC1)C2` (centres unmarked) [Example 96, 3-(3-ethyl-4-oxo-spiro[6,8-dihydro-5H-pyrazolo[4,3-c]azepine-7,4′-tetrahydropyran]-1-yl)propyl 1,1-dioxothiolane-3-carboxylate], for which the IC50 is above 500 nM.

As to `CCc1nn(CCCOC(=O)C2CCSCC2)c2c1C(=O)NCC1(CCOCC1)C2` [Example 85, 3-(3-ethyl-4-oxo-spiro[6,8-dihydro-5H-pyrazolo[4,3-c]azepine-7,4′-tetrahydropyran]-1-yl)propyl tetrahydrothiopyran-4-carboxylate], the IC50 was 100 to 500 nM.

As for `CCc1nn(CCOC(=O)c2cocn2)c2c1C(=O)NCC1(CCOCC1)C2` [Example 2, 2-(3-ethyl-4-oxo-spiro[6,8-dihydro-5H-pyrazolo[4,3-c]azepine-7,4′-tetrahydropyran]-1-yl)ethyl oxazole-4-carboxylate], the IC50 was above 500 nM.

Regarding `CCc1nn(CCOC(=O)Cc2csc(C)n2)c2c1C(=O)NCC1(CCOCC1)C2` [Example 15, 2-(3-ethyl-4-oxo-spiro[6,8-dihydro-5H-pyrazolo[4,3-c]azepine-7,4′-tetrahydropyran]-1-yl)ethyl 2-(2-methylthiazol-4-yl)acetate], the IC50 is above 500 nM.

`CCc1nn(CCCOC(=O)c2conc2C)c2c1C(=O)NCC1(CCOCC1)C2` [Example 45, 3-(3-ethyl-4-oxo-spiro[6,8-dihydro-5H-pyrazolo[4,3-c]azepine-7,4′-tetrahydropyran]-1-yl)propyl 3-methylisoxazole-4-carboxylate]: the IC50 was 100 to 500 nM.

In the case of `CCc1nn(CCCOC(=O)C2CCN(C(C)=O)C2)c2c1C(=O)NCC1(CCOCC1)C2` (centres unmarked) [Example 93, 3-(3-ethyl-4-oxo-spiro[6,8-dihydro-5H-pyrazolo[4,3-c]azepine-7,4′-tetrahydropyran]-1-yl)propyl 1-acetylpyrrolidine-3-carboxylate], the IC50 is above 500 nM.

With `CCc1nn(CCCOC(=O)c2cc(C)nc(C)c2)c2c1C(=O)NCC1(CCOCC1)C2` [Example 86, 3-(3-ethyl-4-oxo-spiro[6,8-dihydro-5H-pyrazolo[4,3-c]azepine-7,4′-tetrahydropyran]-1-yl)propyl 2,6-dimethylpyridine-4-carboxylate], the IC50 was in the range of 100 to 500 nM.

`CCc1nn(CCCOC(=O)c2nc(C)oc2C)c2c1C(=O)NCC1(CCOCC1)C2` [Example 76, 3-(3-ethyl-4-oxo-spiro[6,8-dihydro-5H-pyrazolo[4,3-c]azepine-7,4′-tetrahydropyran]-1-yl)propyl 2,5-dimethyloxazole-4-carboxylate]: the IC50 was above 500 nM.

Consider `CCc1nn(CCCOC(=O)c2ccsn2)c2c1C(=O)NCC1(CCOCC1)C2` [Example 53, 3-(3-ethyl-4-oxo-spiro[6,8-dihydro-5H-pyrazolo[4,3-c]azepine-7,4′-tetrahydropyran]-1-yl)propyl isothiazole-3-carboxylate], for which the IC50 fell in the range of 100 to 500 nM.

On to `CCc1nn(CCCOC(=O)c2ccn(C)n2)c2c1C(=O)NCC1(CCOCC1)C2` [Example 32, 3-(3-ethyl-4-oxo-spiro[6,8-dihydro-5H-pyrazolo[4,3-c]azepine-7,4′-tetrahydropyran]-1-yl)propyl 1-methylpyrazole-3-carboxylate], for which the IC50 is above 500 nM.

Regarding `CCc1nn(CCCOC(=O)c2coc(C)n2)c2c1C(=O)NCC1(CCOCC1)C2` [Example 46, 3-(3-ethyl-4-oxo-spiro[6,8-dihydro-5H-pyrazolo[4,3-c]azepine-7,4′-tetrahydropyran]-1-yl)propyl 2-methyloxazole-4-carboxylate], the IC50 was above 500 nM.

Regarding `CCc1nn(C[C@@H](C)COC(=O)C2CCOC2)c2c1C(=O)NCC1(CCOCC1)C2` (stereo partly drawn) [Example 108, [(2R)-3-(3-ethyl-4-oxo-spiro[6,8-dihydro-5H-pyrazolo[4,3-c]azepine-7,4′-tetrahydropyran]-1-yl)-2-methyl-propyl] tetrahydrofuran-3-carboxylate], the IC50 was below 100 nM.

For the compound `CCc1nn(CCCOC(=O)c2cc(C)nn2C)c2c1C(=O)NCC1(CCOCC1)C2` [Example 71, 3-(3-ethyl-4-oxo-spiro[6,8-dihydro-5H-pyrazolo[4,3-c]azepine-7,4′-tetrahydropyran]-1-yl)propyl 2,5-dimethylpyrazole-3-carboxylate], the IC50 lay in the range of 100 to 500 nM.
